Results reported in patent publication US20260130918A1, “TRANSCRIPTION FACTOR PFAP2-O5 INHIBITOR FOR PLASMODIUM FALCIPARUM, PHARMACEUTICAL COMPOSITION, AND DRUG FOR TREATING MALARIA RESISTANT TO ARTEMISININ AND ANALOG THEREOF” (priority 2023, published 2026).
“Also recorded” adds a separate entry of the source.

Assays:
[1] = tested on: Plasmodium falciparum; assay: 3-day SYBR Green I in vitro growth inhibition of Plasmodium falciparum; assay type: cell-based; conditions: wild-type Plasmodium falciparum, 72 hours, read-out: IC50 of growth inhibition on in vitro culture of Plasmodium falciparum
Description: 100 μL of complete culture medium was added to a 96-well plate. 200 μL of a compound stock solution with a concentration of 200 μM was added to the first well. Gradient dilution (11 concentration gradients) was performed at a 1/2 ratio according to the doubling gradient dilution. Dihydroartemisinin (DHA) was used as a positive control, complete culture medium was used as a negative control, and red blood cells without Plasmodium falciparum or compounds were used as a background control.
100 μL of wild-type Plasmodium falciparum culture (1% parasitemia, 4% hematocrit) was accurately added to each well, so that finally, the parasitemia in each well was 0.5%, and the hematocrit was 2%. The final concentration gradients of the compound were 100 μM, 50 μM, 25 μM, 12.5 μM, 6.25 μM, 3.125 μM, 1.5625 μM, 0.78125 μM, 0.390625 μM, 0.195313 μM, and 0.097656 μM. […] After the incubation was completed, a fluorescence intensity was recorded on a microplate reader with an excitation wavelength of 485 nm and an emission wavelength of 535 nm. The inhibition rate of the small molecule inhibitor on the growth of Plasmodium falciparum was calculated based on the fluorescence intensity.
[formula] • where Fltreated, Flbackground, and Flcontrol represent the fluorescence intensity values of the candidate small molecule drug group, the red blood cell control group, and the untreated control group, respectively. […]

[2] = tested on: 293T cells; assay: 3-day CCK-8 cytotoxicity assay, 293T; assay type: cell-based, human; conditions: 72 hours
Description: (§1) Mammalian 293T and HepG2 cells were cultured and passaged, trypsinized, and resuspended in DMEM. The cells were counted using a hemocytometer and diluted to 10^5 cells/mL. The cell suspension was evenly added to a 96-well plate, with 100 μL per well. After the cells were subjected to attachment culture in a 37° C. incubator (5% CO2) for 24 hours, the inhibitors of the corresponding concentrations were added. Gradient dilution (11 concentration gradients) was performed at a 1/2 ratio according to the doubling gradient dilution. Complete culture medium was used as a negative control, and DMEM was used as a background control. After the culture in a 37° C. incubator (5% CO2) for 72 hours, 10 µL of CCK8 reagent was added to each well. The plate was incubated in a 37° C. incubator (5% CO2) for 1 hour. The absorbance at a 450 nm wavelength was read by a microplate reader, and a survival rate was calculated based on the absorbance.
(§2) [formula] • where Abtreated, Abbackground, and Abcontrol represent the absorbance values of the small molecule drug group, the DMEM control group, and the untreated control group, respectively. The inhibition rate of the drug was calculated based on the survival rate at different concentrations, and the growth inhibition curve was summarized as inhibition rate-drug concentration. The IC50 was calculated using SPSS 18.0 software.

[3] = tested on: HepG2 cells; assay: 3-day CCK-8 cytotoxicity assay, HepG2; assay type: cell-based, human; conditions: HepG2, 72 hours
Description: as §1, §2

[4] = tested on: PfAP2-O5 target genes (invasion genes); assay: RNA-seq analysis of invasion gene expression after inhibitor treatment; assay type: cell-based, Plasmodium falciparum; conditions: wild-type strain treated with 1 M triazoloquinoline derivative for one life cycle
Description: Wild-type and pfap2-o5 conditional knockdown Plasmodium falciparum strains were treated with the triazoloquinoline derivative represented by formula (I), respectively. After strict synchronization of the Plasmodium falciparum strains, […] triazoloquinoline derivative was added one life cycle in advance. After one life cycle, the ring (10-15 hours), trophozoite (28-32 hours), and schizont (40-44 hours) stage cultures of the wild-type and pfap2-o5 conditional knockdown Plasmodium falciparum strains treated with the triazoloquinoline derivative were collected. Total RNA was purified using the Direct-zol RNA kit, strand-specific RNA sequencing libraries were then prepared using KAPA mRNA beads, and the RNA was fragmented. The libraries were sequenced on the Illumina HiSeq X Ten system, and the differential gene expression between the two Plasmodium falciparum strains after inhibitor treatment was analyzed.

[5] = Liver microsomal metabolism, mouse; assay type: in vitro ADME; design: half-life / CLint scaled: dose or concentration left out as unconfirmed
Description: (§3) In the microsomal metabolism assay, the inhibitor was incubated with liver microsomes from different species; the reaction was terminated at different time points; the remaining amount of the inhibitor in the samples at each time point was determined using LC-MS/MS. The percentage of parent drug remaining was calculated, and the hepatic intrinsic clearance CLinit(liver) was finally obtained. Testosterone was used as a control in this study to verify the reliability of the experimental system. The detailed procedures were as follows:
(§4) The incubation system consisted of 0.1 M Tris-HCl buffer (pH 7.4), 1 mM MgCl2, 1 mM NADPH (Nicotinamide Adenine Dinucleotide Phosphate), and 0.5 mg/mL microsomes, and the final reaction volume was 200 μL. […] inhibitor and testosterone were pre-incubated with liver microsomes from different species in a 37° C. water bath for 5 minutes. 100 μL of NADPH was added to initiate the reaction. 400 μL of stop solution was added to terminate the reaction at time points of 0 minutes, 5 minutes, 15 minutes, 30 minutes, 45 minutes, and 60 minutes. 40 μL of internal standard was added, and the mixture was vortexed for 5 minutes and centrifuged at […] and 4° C. for 5 minutes. 100 μL of the supernatant was taken and diluted with 100 μL of water for injection and analysis. The retention time of the compound and the internal standard, chromatogram acquisition, and chromatogram integration were processed by Analyst 1.6.3 software. The compound was subjected to linear regression with a weighting coefficient of 1/X^2 to calculate the concentration at each time point. The natural logarithm of the percentage remaining at each time point was linearly regressed against the incubation time to calculate the in vitro elimination rate constant k. The half-life (T1/2) and hepatic intrinsic clearance CLint(liver) of the test article were calculated according to the following formula.
(§5) hepatic microsomal clearance CLint(mic)=0.693/half-life/mg microsomal protein per mL; hepatic intrinsic clearance CLint(liver)=hepatic microsomal clearance×mg microsomal protein/gram of liver×liver weight-to-body weight ratio. The liver weight-to-body weight ratios of mice, rats, and humans were […], respectively; the average value of mg microsomal protein/gram of liver in different species was 45.

[6] = Liver microsomal metabolism, rat; assay type: in vitro ADME; design: half-life / CLint scaled: dose or concentration left out as unconfirmed
Description: as §3, §4, §5

[7] = Liver microsomal metabolism, human; assay type: in vitro ADME; design: half-life / CLint scaled: dose or concentration left out as unconfirmed
Description: as §3, §4, §5

[8] = tested on: artemisinin-resistant Plasmodium falciparum strains; assay: Ring-stage survival assay against resistant Plasmodium falciparum strains; assay type: cell-based; conditions: in combination with DHA, 6 hours exposure, then 66 hours culture
Description: This experiment aimed to evaluate the killing effect of the triazoloquinoline derivative as a combination drug against drug-resistant Plasmodium falciparum strains using the gold-standard drug resistance assay. The detailed implementation procedures were as follows: • 1. Culture of Plasmodium falciparum when the parasitemia was greater than 4% and most parasites were at the ring (R) stage, the culture was synchronized with Sorbitol for 10 minutes and vortexed for 5 seconds; • 2. Synchronization with sorbitol was repeated 30-48 hours later (depending on the parasite stage); • 3. Smear test under microscope after approximately 30 hours of culture: if the proportion of the mature schizont (S) stage (10-12 merozoites) was greater than 0.5%, the operation proceeded to procedure 4; if the proportion of the mature S stage (10-12 merozoites) was less than 0.5%, procedure 2 was repeated; • 4. […] After the culture was mixed well, approximately 200 μL of the culture was pipetted and centrifuged for smear test under microscope (this could be done approximately 10 minutes in advance); the parasitemia was quickly calculated (must be greater than 0.5%); • 7. […] After 66 hours of the culture, smear test under microscope was performed to calculate the parasitemia, and the survival rate was calculated.

## Cc1cccc(-c2nnc3c4ccccc4nc(N4CCN(C(=O)Cc5ccccc5)CC4)n23)c1 [triazoloquinoline derivative]
[1]
  IC50: 2.63 µM
[2]
  cytotoxicity to mammalian cells (293T): low cytotoxicity; also recorded: almost no toxicity
[3]
  cytotoxicity to mammalian cells (HepG2): low cytotoxicity; also recorded: almost no toxicity
[4]
  decrease of expression levels of merozoite surface structural protein family genes (mRNA level): more than 1.5 fold
[5]; liver microsomes, pH 7.4, mouse, hepatic intrinsic clearance scaled from microsomes
  CLint scaled: 20.5 L/h/kg
[5]; mouse liver microsomes
  clearance classification: high-clearance compound
[5]; mouse liver microsomes, 0.5 mg/mL, NADPH
  k: 0.0432 min⁻¹
[5]; pH 7.4, mouse liver microsomes
  half-life: 16 min
[6]; liver microsomes, pH 7.4, rat, hepatic intrinsic clearance scaled from microsomes
  CLint scaled: 3.56 L/h/kg
[6]; pH 7.4, rat liver microsomes
  half-life: 42 min
[6]; rat liver microsomes
  clearance classification: moderate-clearance compound
[6]; rat liver microsomes, 0.5 mg/mL, NADPH
  k: 0.0165 min⁻¹
[7]; human liver microsomes
  clearance classification: moderate-clearance compound
[7]; human liver microsomes, 0.5 mg/mL, NADPH
  k: 0.0053 min⁻¹
[7]; liver microsomes, pH 7.4, human, hepatic intrinsic clearance scaled from microsomes
  CLint scaled: 0.512 L/h/kg
[7]; pH 7.4, human liver microsomes
  half-life: 131 min
[8]
  killing effect against artemisinin-resistant strains (ring-stage survival): more effectively kill
